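The compound was tested at five concentrations on cells cultured in 96-well plates, with a 48-hour exposure period. GI50: concentration for 50% inhibition of growth.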 The source made the active and inactive calls. Cut-off read from the data, not from the text of the source: active = GI50 up to about 1.1 µM and inactive = higher.
What was measured:
Assay in all cases: growth of human tumour cells (NCI), 48 h
HL-60 = test system: HL-60
MCF7 = test system: MCF7
HOP-62 = test system: HOP-62
SF-268 = test system: SF-268
MDA-N = test system: MDA-N
SK-MEL-2 = test system: SK-MEL-2
NCI-H522 = test system: NCI-H522
K562 = test system: K562
SK-MEL-5 = test system: SK-MEL-5
A549 = test system: A549
LOX IMVI = test system: LOX IMVI
M14 = test system: M14
MOLT-4 = test system: MOLT-4
COLO 205 = test system: COLO 205
SK-OV-3 = test system: SK-OV-3
NCI-H23 = test system: NCI-H23
HOP-92 = test system: HOP-92
UO-31 = test system: UO-31
UACC-62 = test system: UACC-62
SW-620 = test system: SW-620
UACC-257 = test system: UACC-257
IGROV-1 = test system: IGROV-1
NCI/ADR-RES = test system: NCI/ADR-RES
SK-MEL-28 = test system: SK-MEL-28
NCI-H460 = test system: NCI-H460
SNB-75 = test system: SNB-75
SF-295 = test system: SF-295
PC-3 = test system: PC-3
RXF 393 = test system: RXF 393
HT-29 = test system: HT-29
SNB-19 = test system: SNB-19
HCT-15 = test system: HCT-15
KM12 = test system: KM12
RPMI-8226 = test system: RPMI-8226
OVCAR-8 = test system: OVCAR-8
T47D = test system: T47D
SF-539 = test system: SF-539
SN12C = test system: SN12C
BT-549 = test system: BT-549
U-251 = test system: U-251
OVCAR-4 = test system: OVCAR-4
EKVX = test system: EKVX
786-0 = test system: 786-0
NCI-H226 = test system: NCI-H226
HCC 2998 = test system: HCC 2998
OVCAR-5 = test system: OVCAR-5
MDA-MB-435 = test system: MDA-MB-435
ACHN = test system: ACHN
MDA-MB-231 = test system: MDA-MB-231
Malme-3M = test system: Malme-3M
CAKI-1 = test system: CAKI-1
HCT-116 = test system: HCT-116
TK-10 = test system: TK-10
Hs-578T = test system: Hs-578T
CCRF-CEM = test system: CCRF-CEM
DU-145 = test system: DU-145
OVCAR-3 = test system: OVCAR-3
A498 = test system: A498

With COc1ccc2c(c1)N=C1CSC(c3c(Cl)cccc3[N+](=O)[O-])N1C2 (stereo not drawn) the GI50 (HL-60) was 31 µM (inactive), the GI50 (MCF7) was 30.1 µM (inactive) and the GI50 (HOP-62) was > 100 µM (inactive). For the same compound, the GI50 (SF-268) was 63.4 µM (inactive), the GI50 (MDA-N) was 29.8 µM (inactive) and the GI50 (SK-MEL-2) was 35.4 µM (inactive). The GI50 (NCI-H522) was 31 µM (inactive), the GI50 (K562) was 35.4 µM (inactive) and the GI50 (SK-MEL-5) was 19.4 µM (inactive). The GI50 (A549) was 42.8 µM (inactive), the GI50 (LOX IMVI) was 35.5 µM (inactive) and the GI50 (M14) was 51.6 µM (inactive). For the same compound, the GI50 (MOLT-4) was 20 µM (inactive), the GI50 (COLO 205) was 24.9 µM (inactive) and the GI50 (SK-OV-3) was > 100 µM (inactive). The GI50 (NCI-H23) was 45.3 µM (inactive), the GI50 (HOP-92) was 40 µM (inactive) and the GI50 (UO-31) was 30.8 µM (inactive). For the same compound, the GI50 (UACC-62) was 22.4 µM (inactive), the GI50 (SW-620) was 36.6 µM (inactive) and the GI50 (UACC-257) was 27 µM (inactive). For the same compound, the GI50 (IGROV-1) was 62.8 µM (inactive), the GI50 (NCI/ADR-RES) was 34.5 µM (inactive) and the GI50 (SK-MEL-28) was 20.5 µM (inactive). The GI50 (NCI-H460) was 20 µM (inactive), the GI50 (SNB-75) was 25.1 µM (inactive) and the GI50 (SF-295) was 40.6 µM (inactive). For the same compound, the GI50 (PC-3) was 40.6 µM (inactive), the GI50 (RXF 393) was 29.5 µM (inactive) and the GI50 (HT-29) was 38.2 µM (inactive). For the same compound, the GI50 (SNB-19) was > 100 µM (inactive), the GI50 (HCT-15) was 30.8 µM and the GI50 (KM12) was 33.5 µM (inactive). The GI50 (RPMI-8226) was 30 µM (inactive), the GI50 (OVCAR-8) was 46.9 µM (inactive) and the GI50 (T47D) was 49 µM (inactive). For the same compound, the GI50 (SF-539) was 37.2 µM (inactive), the GI50 (SN12C) was 53.7 µM (inactive) and the GI50 (BT-549) was 24.7 µM (inactive). For the same compound, the GI50 (U-251) was 54.2 µM (inactive), the GI50 (OVCAR-4) was 56.6 µM (inactive) and the GI50 (EKVX) was 40.3 µM (inactive). For the same compound, the GI50 (786-0) was 51.5 µM (inactive), the GI50 (NCI-H226) was 0.918 µM (active) and the GI50 (HCC 2998) was 21.4 µM (inactive). For the same compound, the GI50 (OVCAR-5) was > 100 µM (inactive), the GI50 (MDA-MB-435) was 27.5 µM (inactive) and the GI50 (ACHN) was 36.1 µM (inactive). The GI50 (MDA-MB-231) was 33.3 µM (inactive), the GI50 (Malme-3M) was 44.3 µM (inactive) and the GI50 (CAKI-1) was 37.8 µM (inactive). For the same compound, the GI50 (HCT-116) was 35.5 µM (inactive), the GI50 (TK-10) was 48.4 µM (inactive) and the GI50 (Hs-578T) was 45.4 µM (inactive).
Cc1cc2[nH]c3c(C#N)c4c(c(=O)n3c2cc1C)CCCC4 was tested, and the GI50 (HL-60) was 96.6 µM (inactive), the GI50 (MCF7) was > 100 µM (inactive) and the GI50 (SF-268) was 79.3 µM (inactive). For the same compound, the GI50 (MDA-N) was 87.9 µM (inactive), the GI50 (SK-MEL-2) was > 100 µM (inactive) and the GI50 (NCI-H522) was > 100 µM (inactive). The GI50 (K562) was 64.9 µM (inactive), the GI50 (SK-MEL-5) was 32.6 µM (inactive) and the GI50 (A549) was > 100 µM (inactive). For the same compound, the GI50 (LOX IMVI) was > 100 µM (inactive), the GI50 (M14) was 14.5 µM (inactive) and the GI50 (MOLT-4) was > 100 µM (inactive). For the same compound, the GI50 (COLO 205) was > 100 µM (inactive), the GI50 (SK-OV-3) was 14.1 µM (inactive) and the GI50 (NCI-H23) was > 100 µM (inactive). For the same compound, the GI50 (HOP-92) was 87.7 µM (inactive), the GI50 (UO-31) was > 100 µM (inactive) and the GI50 (UACC-62) was > 100 µM (inactive). For the same compound, the GI50 (SW-620) was > 100 µM (inactive), the GI50 (UACC-257) was > 100 µM (inactive) and the GI50 (IGROV-1) was > 100 µM (inactive). For the same compound, the GI50 (CCRF-CEM) was > 100 µM (inactive), the GI50 (NCI/ADR-RES) was > 100 µM (inactive) and the GI50 (DU-145) was > 100 µM (inactive). The GI50 (SK-MEL-28) was > 100 µM (inactive), the GI50 (NCI-H460) was > 100 µM (inactive) and the GI50 (SF-295) was 16 µM (inactive). The GI50 (PC-3) was > 100 µM (inactive), the GI50 (HT-29) was > 100 µM (inactive) and the GI50 (SNB-19) was 31 µM (inactive). The GI50 (HCT-15) was over 100 µM, the GI50 (KM12) was > 100 µM (inactive) and the GI50 (OVCAR-3) was > 100 µM (inactive). The GI50 (OVCAR-8) was > 100 µM (inactive), the GI50 (T47D) was > 100 µM (inactive) and the GI50 (SF-539) was > 100 µM (inactive). The GI50 (SN12C) was > 100 µM (inactive), the GI50 (BT-549) was > 100 µM (inactive) and the GI50 (U-251) was 40.2 µM (inactive). The GI50 (OVCAR-4) was > 100 µM (inactive), the GI50 (EKVX) was > 100 µM (inactive) and the GI50 (786-0) was > 100 µM (inactive). For the same compound, the GI50 (NCI-H226) was > 100 µM (inactive), the GI50 (A498) was > 100 µM (inactive) and the GI50 (HCC 2998) was > 100 µM (inactive). For the same compound, the GI50 (OVCAR-5) was 18.7 µM (inactive), the GI50 (MDA-MB-435) was 67.3 µM (inactive) and the GI50 (ACHN) was 72.1 µM (inactive). The GI50 (MDA-MB-231) was > 100 µM (inactive), the GI50 (Malme-3M) was > 100 µM (inactive) and the GI50 (CAKI-1) was > 100 µM (inactive). For the same compound, the GI50 (HCT-116) was > 100 µM (inactive), the GI50 (TK-10) was > 100 µM (inactive) and the GI50 (Hs-578T) was 86.1 µM (inactive).

Reference: ChEMBL document CHEMBL1201862, “PubChem BioAssay data set” (2004)
